Values quoted from earlier work, collected in US20210401795A1, “Compressible Cannabinoid Pharmaceutical Composition” (Imbucanna, Inc., priority 2019, published 2021).

Experiments:
[1] = not given; remark: listed apart in the source
[2] = pure CBD, twice-daily dosages, pediatric patients; ranging from total seizure freedom to the stated reductions

Q: What does the source list for `CCCCCc1cc(O)c2c(c1)OC(C)(C)[C@@H]1CCC(C)=C[C@@H]21` [Dronabinol, (−)-trans-Δ^9-tetrahydrocannabinol]?
A: duration of appetite stimulant effect (after administration): ≥ 24 h; duration of action for psychoactive effects (after oral administration): 4 to 6 h; onset of action (after oral administration): 0.5 to 1 h; peak effect (after oral administration): 2 to 4 h

Q: For `C=C(C)[C@@H]1CCC(C)=C[C@H]1c1c(O)cc(CCCCC)cc1O` [CBD, cannabidiol], which solubility in water [1] is on record?
A: poorly soluble in water

Q: And the seizure reduction [2]?
A: 25-80%
